The values that follow come from patent US20090234019A1, “T Type Calcium Channel Inhibitors” (priority 2004, published 2009).

Experiment [1] addresses T1, α1H isoform of T type Ca2+ channels (Homo sapiens, UniProt O95180).
T1 construct: expressed in transfected cells; host or cells: HEK293 (stably transfected)
The experiment in a line: Inhibition of Ca2+ current through transfected α1H channels. It counts as cell-based. As to conditions: FIG. 7.

The test system of experiment [2] is HEK293 cells stably transfected the α1H gene. The experiment in a line: Proliferation of HEK293 cells stably transfected with α1H. It counts as cell-based. Conditions: FIG. 5.
A further experiment has as its system Jurkat cells. The experiment in a line: Inhibition of proliferation of Jurkat cells. It counts as cell-based, human. Conditions: Jurkat, 48 hrs, read-out: IC50 of TH-1177 for inhibition of proliferation. As for the experimental part: (§1) Cancer cell lines were obtained from the American Type Culture Collection (Manassas, Va.). Cell lines were maintained in RPMI1640 supplemented with glutamine and 5% fetal bovine serum containing SerXtend (Irvine Scientific) when appropriate insulin, as directed by the ATCC. The fetal bovine serum used for culture was heat-inactivated by maintaining the serum at 56° C. for 1 h. Cell lines used were a T celleukemia (Jurkat), prostate cancer (PC3, DU145, LNCAP), breast cancer (MDA468, MDA361, MCF7), pancreatic cancer (MIA PaCa2), liver cancer (Hep G2), lung cancer (A549, NCl H460), colon cancer (HT29, HCT 116), and ovarian cancer (SK-OV-3).
(§2) LNCaP cells at 2.5×10^4 cells/well or PC-3 cells at 5×10^4 cells/well, both in a final volume of […], were plated in triplicate in standard flat-bottomed 96-well tissue culture plates in the presence of drug or vehicle (DMSO). Unless otherwise indicated, cells were grown for 48 h at 37° C. in a CO2 incubator. Relative cell growth was determined with the CellTiter 96 aqueous cell proliferation assay (Promega, Madison, Wis.) as described by the manufacturer using an automated plate reader. Results were calculated in a blinded fashion and are the means of triplicate determinations.

The subject of experiment [3] is human PC3 prostate cancer cells. Conditions: xenografted PC3, Haverstick et al. 2000; cited from earlier work.
The next experiment has as its system PC3 cells. The experiment in a line: Inhibition of proliferation of PC3 cells. Conditions: FIG. 6 panel B; read-out: IC50, proliferation of PC3 human prostate cancer cells. In kind it is cell-based, human. As to the method: as §1, §2

pIC50: −log10 of the molar value. Read-outs that look alike come from different tables or passages of the source.

T1 sequence (O95180 whole entry, canonical isoform): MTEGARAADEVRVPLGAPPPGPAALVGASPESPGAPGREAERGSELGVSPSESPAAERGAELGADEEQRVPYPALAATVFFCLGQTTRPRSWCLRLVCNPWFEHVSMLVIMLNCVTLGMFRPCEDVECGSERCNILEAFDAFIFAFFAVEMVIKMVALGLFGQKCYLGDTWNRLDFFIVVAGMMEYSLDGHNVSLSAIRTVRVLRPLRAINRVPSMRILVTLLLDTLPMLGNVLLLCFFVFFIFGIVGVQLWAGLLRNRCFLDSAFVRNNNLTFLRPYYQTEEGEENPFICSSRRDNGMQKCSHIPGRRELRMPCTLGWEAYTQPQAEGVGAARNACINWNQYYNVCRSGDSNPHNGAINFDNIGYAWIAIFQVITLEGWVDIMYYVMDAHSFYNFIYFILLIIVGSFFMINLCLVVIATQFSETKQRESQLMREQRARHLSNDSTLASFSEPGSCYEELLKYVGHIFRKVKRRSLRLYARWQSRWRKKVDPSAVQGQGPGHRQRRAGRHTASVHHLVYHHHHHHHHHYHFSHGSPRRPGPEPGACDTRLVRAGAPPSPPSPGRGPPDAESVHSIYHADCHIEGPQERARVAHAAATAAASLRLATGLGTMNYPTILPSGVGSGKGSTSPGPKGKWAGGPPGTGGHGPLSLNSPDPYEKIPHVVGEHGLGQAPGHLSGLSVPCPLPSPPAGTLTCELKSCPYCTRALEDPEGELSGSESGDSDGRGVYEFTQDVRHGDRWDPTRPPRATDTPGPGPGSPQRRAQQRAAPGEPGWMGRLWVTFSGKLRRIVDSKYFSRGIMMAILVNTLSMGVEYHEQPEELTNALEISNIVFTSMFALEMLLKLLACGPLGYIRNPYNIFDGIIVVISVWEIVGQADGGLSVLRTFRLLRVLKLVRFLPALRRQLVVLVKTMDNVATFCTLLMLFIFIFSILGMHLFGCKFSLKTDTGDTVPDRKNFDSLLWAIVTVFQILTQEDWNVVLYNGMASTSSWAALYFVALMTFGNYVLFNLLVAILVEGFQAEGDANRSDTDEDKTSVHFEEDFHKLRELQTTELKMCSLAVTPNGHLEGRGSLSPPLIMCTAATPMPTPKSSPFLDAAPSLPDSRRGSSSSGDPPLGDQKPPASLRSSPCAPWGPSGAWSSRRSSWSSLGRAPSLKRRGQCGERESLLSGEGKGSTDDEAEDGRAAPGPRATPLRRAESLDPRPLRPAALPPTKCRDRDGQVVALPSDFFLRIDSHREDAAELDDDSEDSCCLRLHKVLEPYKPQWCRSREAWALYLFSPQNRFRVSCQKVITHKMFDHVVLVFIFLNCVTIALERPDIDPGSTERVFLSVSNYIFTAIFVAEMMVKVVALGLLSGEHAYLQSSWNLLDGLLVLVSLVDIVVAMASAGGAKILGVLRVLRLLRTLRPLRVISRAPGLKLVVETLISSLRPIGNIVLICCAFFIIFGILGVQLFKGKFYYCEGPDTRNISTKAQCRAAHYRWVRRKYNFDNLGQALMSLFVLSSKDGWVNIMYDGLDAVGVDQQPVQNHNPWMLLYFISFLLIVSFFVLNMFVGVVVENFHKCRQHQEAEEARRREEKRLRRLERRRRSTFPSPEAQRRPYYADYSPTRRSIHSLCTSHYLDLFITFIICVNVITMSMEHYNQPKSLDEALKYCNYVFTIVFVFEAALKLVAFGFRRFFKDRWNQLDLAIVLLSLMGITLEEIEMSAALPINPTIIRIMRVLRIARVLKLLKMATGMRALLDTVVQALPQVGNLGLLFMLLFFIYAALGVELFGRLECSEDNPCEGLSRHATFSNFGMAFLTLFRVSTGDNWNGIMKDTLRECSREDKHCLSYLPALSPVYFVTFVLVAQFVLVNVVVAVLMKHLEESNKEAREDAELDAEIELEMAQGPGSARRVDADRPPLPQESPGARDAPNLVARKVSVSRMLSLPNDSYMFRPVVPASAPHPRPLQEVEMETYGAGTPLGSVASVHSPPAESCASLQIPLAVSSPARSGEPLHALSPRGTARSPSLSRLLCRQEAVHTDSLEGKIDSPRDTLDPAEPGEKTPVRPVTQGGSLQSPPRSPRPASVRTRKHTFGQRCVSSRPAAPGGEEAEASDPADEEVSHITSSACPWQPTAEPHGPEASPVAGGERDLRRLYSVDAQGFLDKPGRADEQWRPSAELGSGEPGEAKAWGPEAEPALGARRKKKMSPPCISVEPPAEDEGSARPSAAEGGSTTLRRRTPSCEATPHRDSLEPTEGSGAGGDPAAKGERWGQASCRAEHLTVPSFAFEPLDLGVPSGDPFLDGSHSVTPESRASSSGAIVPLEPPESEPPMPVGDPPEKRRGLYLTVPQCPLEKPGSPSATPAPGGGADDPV

As to `COc1ccc(CCN2CCC[C@H]2COC(c2ccccc2)c2ccc(Cl)cc2)cc1` (some centres unmarked) [TH-1177], the pIC50 was 6.10 in experiment [1], 4.75 in the experiment on Jurkat cells (in the absence of ionomycin), 5.34 in the experiment with Jurkat cells (in the presence of 30 uM ionomycin) and 4.85 with PC3 cells. The “proliferation of stably transfected HEK293 cells” value in experiment [2] was “inhibits proliferation”. In addition, the “lifespan of nude mice inoculated with human PC3 prostate cancer cells” value in experiment [3] was “significantly extended the lifespan”.

On to `COc1ccc(CCN2CCCC2COC(c2ccccc2)c2ccc(Cl)cc2)cc1` (centres unmarked) [TH-1211], for which the pIC50 in experiment [1] is 5.15; with PC3 cells it was 4.38.
